From PubChem BioAssay (NCI) come the findings set out here.

Common to all, as to test: NCI-60 cell line screen, 48 h
In assay [1] the test system is SW-620 colon.
Assay [2] concerns LOX IMVI melanoma.
Assay [3] concerns OVCAR-8 ovarian.
Assay [4] deals with RPMI-8226 leukemia.
Assay [5] deals with HT29 colon.
Assay [6] deals with KM12 colon.
Assay [7] deals with HCT-116 colon.
For assay [8], the system named is COLO 205 colon.
The test system of assay [9] is SK-OV-3 ovarian.
In assay [10] the test system is SF-268 CNS.

Where “and” joins values, the source holds several entries; their conditions need not be identical. Identical values can stand only once.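 Compound exposure: 48 hours, 5 concentrations, 96-well plates. GI50: concentration for 50% inhibition of growth. Definition used: TGI = concentration required for complete inhibition of growth.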 Bounds are passed on as bounds.

With `COc1cc(Cn2c(-c3nonc3N)nc3ccccc32)ccc1C`, the GI50 in assay [1] is 0.334 µM; in assay [2], 0.649 µM; in [3] it was 0.729 µM; in [4], 0.493 µM; in [5] it was 0.358 µM; in assay [6] it was 0.468 µM. The GI50 was 0.46 µM in assay [7], 0.337 µM in [8], 0.493 µM in assay [9] and 0.825 µM in assay [10]. Besides, the TGI is above 100 µM in [1]; above 100 µM in assay [2]; above 100 µM in assay [3]; above 100 µM in [4]; 7.3 µM in assay [5]; above 100 µM in [6]. The TGI is above 100 µM in [7], 1.39 µM in assay [8], 32 µM in assay [9] and above 100 µM in assay [10].

Regarding `c1nnc(NCNc2nncs2)s1`, the TGI in assay [1], in [2], in [3], in [4], in assay [5] and in assay [6] was above 100 µM in each case. The TGI in [7], in assay [8], in [9] and in assay [10] was above 100 µM throughout.

Consider `CN1C(=O)C(Cl)(C(Cl)(Cl)S(=O)(=O)O)C(=O)c2ccccc21` (stereo not given), for which the TGI in assay [1] was above 100 µM; in [2] it was above 100 µM; in [3], above 100 µM; in [4], above 100 µM; in [5] it was 73 µM; in assay [6] it was above 100 µM. Further, the TGI in assay [7], in assay [8], in assay [9] and in assay [10] was above 100 µM each time.

`CNC(=S)N/N=C/c1ccc([N+](=O)[O-])s1`: the TGI in [1], in [2], in assay [3], in [4], in [5] and in [6] was above 10 µM each time. Also, the TGI in assay [7] was above 10 µM; in [8] it was 8.55 µM; in assay [9], above 10 µM; in assay [10] it was above 10 µM.

Turning to `CN[C@@H]1C[C@H]2O[C@@](C)([C@@H]1OC)n1c3ccccc3c3c4c(c5c6ccccc6n2c5c31)C(=O)N[C@@H]4O`, the GI50 in assay [1] is 0.147 µM; in [3] it was 0.0354 µM; in [4], 0.0419 µM; in [5] it was 0.0475 µM; in [6], 0.0185 µM; in [9] it was 0.0467 µM. Further, in [10], the GI50 was 0.008 µM. Also, the TGI was 0.3 µM and 1.88 µM in assay [1]; 0.406 µM in assay [2]; 0.164 µM and 0.719 µM in assay [3]; 2.42 µM in assay [7]; 0.691 µM in assay [8]; 0.187 µM and 0.28 µM in assay [9].

For the compound `CC[C@@]1(O)C(=O)OCc2c1cc1n(c2=O)Cc2cc3cc(N)ccc3nc2-1`, the GI50 in [1] is 0.0113 µM and < 0.031 µM; in assay [2], 0.0202 µM; in [3], 0.0218 µM; in [4], 0.106 µM and 0.0994 µM; in assay [5] it was 0.0176 µM and 0.0225 µM; in [6] it was 0.232 µM. Further, the GI50 is 0.0618 µM and 0.102 µM in assay [8]; 0.035 µM in [9]. Further, the TGI in [1] was 5.06 µM; in assay [2], 0.207 µM and 0.0665 µM; in assay [3] it was 0.412 µM and 0.198 µM; in [4], 4.45 µM; in assay [6] it was 2.9 µM; in assay [7] it was 1.65 µM. The TGI is 2.86 µM and 1.26 µM in assay [8]; 2.64 µM and 0.756 µM in assay [9]; 1.04 µM and 0.146 µM in [10].

As to `CC(=O)OC1[C@H]2c3cc4c(cc3CN3CCC(=C[C@@H]1O)C23)OCO4` (stereo not given in full), the TGI in [1], in assay [2], in assay [3], in assay [4], in assay [5] and in [6] was above 100 µM throughout. Further, the TGI in [8], in [9] and in assay [10] was above 100 µM each time.

Turning to `Nc1ccc(S(=O)(=O)NCc2nccs2)cc1`, the TGI was above 100 µM in [1]; 41.7 µM in assay [2]; above 100 µM in [3]; 56.1 µM in assay [4]; 31.3 µM in assay [5]; 45 µM in assay [6]. Moreover, the TGI is 40.8 µM in assay [7], 32.7 µM in [8], above 100 µM in assay [9] and 46.3 µM in assay [10].

For `Cc1nc(C(N)=S)sc1C(=O)C/C(=N/N)C(=O)Nc1cccc(Cl)c1C`, the TGI in assay [1], in [2], in assay [3], in assay [4], in assay [5] and in assay [6] was above 100 µM in each case. Besides, the TGI in [7], in assay [9] and in assay [10] was above 100 µM throughout.

With `O=[N+]([O-])c1ccc2c(c1)[O][Sn]([I])([I])[O]2`, the GI50 in assay [1] is above 100 µM; in [2], 89.4 µM; in assay [3], above 100 µM; in [4], 44.6 µM; in assay [5], above 100 µM; in assay [6] it was above 100 µM. Also, the GI50 in [7], in [9] and in assay [10] was above 100 µM throughout. For the same compound, the TGI in assay [1], in [2], in assay [3], in assay [4], in assay [5] and in [6] was above 100 µM throughout. Also, the TGI in assay [7], in assay [9] and in [10] was above 100 µM in each case.

Consider `O=c1ccc(=O)c2c(=O)c3ccccc3c(=O)c1=2`, for which the TGI is above 100 µM in assay [1]; above 100 µM in [2]; above 100 µM in assay [3]; above 100 µM in assay [4]; above 100 µM in [6]; 61.1 µM in assay [7]. Also, the TGI in [8], in assay [9] and in assay [10] was above 100 µM in each case.
